O=C1c2cccc(O)c2C(=O)c2c(O)cc(CO)cc21
solubility (mole fraction) (in ethanol, 278.15 K): 1.72e-05
solubility (mole fraction) (in ethanol, 283.15 K): 2.11e-05
solubility (mole fraction) (in ethanol, 288.15 K): 2.45e-05
solubility (mole fraction) (in ethanol, 293.15 K): 3.09e-05
solubility (mole fraction) (in ethanol, 298.15 K): 3.74e-05
solubility (mole fraction) (in ethanol, 303.15 K): 4.36e-05
solubility (mole fraction) (in ethanol, 308.15 K): 5.05e-05
solubility (mole fraction) (in ethanol, 313.15 K): 6.2e-05
solubility (mole fraction) (in ethanol, 318.15 K): 7.56e-05
solubility (mole fraction) (in methanol, 278.15 K): 1.66e-06
solubility (mole fraction) (in methanol, 283.15 K): 2.23e-06
solubility (mole fraction) (in methanol, 288.15 K): 3.1e-06
solubility (mole fraction) (in methanol, 293.15 K): 4.29e-06
solubility (mole fraction) (in methanol, 298.15 K): 5.39e-06
solubility (mole fraction) (in methanol, 303.15 K): 7.71e-06
solubility (mole fraction) (in methanol, 308.15 K): 1.13e-05
solubility (mole fraction) (in methanol, 313.15 K): 1.6e-05
solubility (mole fraction) (in methanol, 318.15 K): 2.33e-05
solubility (mole fraction) (in n-butanol, 278.15 K): 4.59e-05
solubility (mole fraction) (in n-butanol, 283.15 K): 5.17e-05
solubility (mole fraction) (in n-butanol, 288.15 K): 6.49e-05
solubility (mole fraction) (in n-butanol, 293.15 K): 7.71e-05
solubility (mole fraction) (in n-butanol, 298.15 K): 9.05e-05
solubility (mole fraction) (in n-butanol, 303.15 K): 0.000102
solubility (mole fraction) (in n-butanol, 308.15 K): 0.000122
solubility (mole fraction) (in n-butanol, 313.15 K): 0.000137
solubility (mole fraction) (in n-butanol, 318.15 K): 0.00016
solubility (mole fraction) (in n-pentanol, 278.15 K): 7e-05
solubility (mole fraction) (in n-pentanol, 283.15 K): 8.33e-05
solubility (mole fraction) (in n-pentanol, 288.15 K): 0.0001
solubility (mole fraction) (in n-pentanol, 293.15 K): 0.000118
solubility (mole fraction) (in n-pentanol, 298.15 K): 0.000138
solubility (mole fraction) (in n-pentanol, 303.15 K): 0.000158
solubility (mole fraction) (in n-pentanol, 308.15 K): 0.00018
solubility (mole fraction) (in n-pentanol, 313.15 K): 0.000207
solubility (mole fraction) (in n-pentanol, 318.15 K): 0.000245
solubility (mole fraction) (in n-propanol, 278.15 K): 1.82e-05
solubility (mole fraction) (in n-propanol, 283.15 K): 2.49e-05
solubility (mole fraction) (in n-propanol, 288.15 K): 3.07e-05
solubility (mole fraction) (in n-propanol, 293.15 K): 4e-05
solubility (mole fraction) (in n-propanol, 298.15 K): 5.26e-05
solubility (mole fraction) (in n-propanol, 303.15 K): 6.56e-05
solubility (mole fraction) (in n-propanol, 308.15 K): 7.38e-05
solubility (mole fraction) (in n-propanol, 313.15 K): 9.21e-05
solubility (mole fraction) (in n-propanol, 318.15 K): 0.000116
solubility (mole fraction) (in sec-butanol, 278.15 K): 1.62e-05
solubility (mole fraction) (in sec-butanol, 283.15 K): 2.05e-05
solubility (mole fraction) (in sec-butanol, 288.15 K): 2.71e-05
solubility (mole fraction) (in sec-butanol, 293.15 K): 3.67e-05
solubility (mole fraction) (in sec-butanol, 298.15 K): 4.52e-05
solubility (mole fraction) (in sec-butanol, 303.15 K): 5.44e-05
solubility (mole fraction) (in sec-butanol, 308.15 K): 6.76e-05
solubility (mole fraction) (in sec-butanol, 313.15 K): 8.02e-05
solubility (mole fraction) (in sec-butanol, 318.15 K): 9.79e-05
solubility (mole fraction) (in water, 278.15 K): 2.2e-07
solubility (mole fraction) (in water, 283.15 K): 3.21e-07
solubility (mole fraction) (in water, 288.15 K): 4.43e-07
solubility (mole fraction) (in water, 293.15 K): 5.69e-07
solubility (mole fraction) (in water, 298.15 K): 8.07e-07
solubility (mole fraction) (in water, 303.15 K): 1.21e-06
solubility (mole fraction) (in water, 308.15 K): 1.64e-06
solubility (mole fraction) (in water, 313.15 K): 2.22e-06
solubility (mole fraction) (in water, 318.15 K): 2.82e-06

— BigSolDB 2.1
